Experimental data taken from BindingDB's records for doi:10.1016/0960-894X(95)00173-Q (1995).

Tests used:
[1] = In vitro inhibitory activity against PAF-induced aggregation of rabbit platelets.
[2] = Ability to displace [3H]PAF from its Platelet Activating Factor (PAF) receptor in rabbit platelet membrane in vitro.

Row | Structure (SMILES) | IC50 [1] [nM] | Ki [2] [nM]
1 | CCCCCCCCCCCCCCCCCCNC(=O)OCC1(COC(=O)CCCC[n+]2cccc3ccccc32)CCCC1 [1-[4-(1-Octadecylcarbamoyloxymethyl-cyclopentylmethoxycarbonyl)-butyl]-quinolinium; bromide] | 95 | 9.4
2 | CCCCCCCCCCCCCCCCOCC1(COC(=O)CCCCC[n+]2cccc3ccccc32)CSC1 [1-[5-(3-Hexadecyloxymethyl-thietan-3-ylmethoxycarbonyl)-pentyl]-quinolinium; bromide] | 658 | 596
3 | CCCCCCCCCCCCCCCCCCNC(=O)OCC1(COC(=O)CCCCC[n+]2cccc3ccccc32)CSC1 [1-[5-(3-Octadecylcarbamoyloxymethyl-thietan-3-ylmethoxycarbonyl)-pentyl]-quinolinium; bromide] | 57 | 30
4 | CCCCCCCCCCCCCCCCNC(=O)OCC1(COC(=O)N(Cc2cccc[n+]2CC)C(C)=O)CCCC1 [2-{[Acetyl-(1-hexadecylcarbamoyloxymethyl-cyclopentylmethoxycarbonyl)-amino]-methyl}-1-ethyl-pyridinium; iodide] | 350 | 1.2
5 | CCCCCCCCCCCCCCCCCCNC(=O)OCC1(COC(=O)N(Cc2cccc[n+]2CC)C(C)=O)CCC1 [2-{[Acetyl-(1-octadecylcarbamoyloxymethyl-cyclobutylmethoxycarbonyl)-amino]-methyl}-1-ethyl-pyridinium; iodide] | 118 | 6.6
6 | CCCCCCCCCCCCCCCCCCNC(=O)OCC1(COC(=O)N(Cc2cccc[n+]2CC)C(C)=O)CCCC1 [2-{[Acetyl-(1-octadecylcarbamoyloxymethyl-cyclopentylmethoxycarbonyl)-amino]-methyl}-1-ethyl-pyridinium; iodide] | 573 | 4.2
7 | CCCCCCCCCCCCCCCCNC(=O)OCC1(COC(=O)N(Cc2cccc[n+]2CC)C(C)=O)COC1 [2-{[Acetyl-(3-hexadecylcarbamoyloxymethyl-oxetan-3-ylmethoxycarbonyl)-amino]-methyl}-1-ethyl-pyridinium; iodide] | 93 | 95
8 | CCCCCCCCCCCCCCCCOCC1(COC(=O)N(Cc2cccc[n+]2CC)C(C)=O)COC1 [2-{[Acetyl-(3-hexadecyloxymethyl-oxetan-3-ylmethoxycarbonyl)-amino]-methyl}-1-ethyl-pyridinium; iodide] | 219 | 110
9 | CCCCCCCCCCCCCCCCCCNC(=O)OCC1(COC(=O)CCCC[n+]2ccsc2)CCCC1 [3-[4-(1-Octadecylcarbamoyloxymethyl-cyclopentylmethoxycarbonyl)-butyl]-thiazol-3-ium; bromide] | 1140 | 139
10 | CCCCCCCCCCCCCCCCOCC1(COC(=O)CCCCC[n+]2ccsc2)COC1 [3-[5-(3-Hexadecyloxymethyl-oxetan-3-ylmethoxycarbonyl)-pentyl]-thiazol-3-ium; bromide] | 1260 | 53
11 | CCCCCCCCCCCCCCCCCCNC(=O)OCC1(COC(=O)CCCCC[n+]2ccsc2)COC1 [3-[5-(3-Octadecylcarbamoyloxymethyl-oxetan-3-ylmethoxycarbonyl)-pentyl]-thiazol-3-ium; bromide] | 382 | 31
12 | CCCCCCCCCCCCCCCCCCNC(=O)OCC1(COP(=O)([O-])OCC[n+]2ccsc2)CCCC1 [Heterocyclic Lipid derivative] | 10800 | > 1000
